Results as given in the NIST ThermoML archive (doi:10.1021/acs.jced.8b00451).
± gives the expanded uncertainty stated by the source.

Conditions: Liquid, Ebulliometric method (Recirculating still)

Row | Structure (SMILES) | vapor or sublimation pressure (394.7 K) [kPa] | vapor or sublimation pressure (434 K) [kPa] | vapor or sublimation pressure (434.1 K) [kPa] | vapor or sublimation pressure (444.3 K) [kPa] | vapor or sublimation pressure (459.3 K) [kPa] | vapor or sublimation pressure (469.3 K) [kPa] | vapor or sublimation pressure (479.4 K) [kPa]
1 | O=Cc1ccco1 [2-furaldehyde] | 30 ± 0.2 |  |  |  |  |  | 
2 | CC1CCC(=O)O1 (configuration not stated) [γ-valerolactone] |  | 29.9 ± 0.2 | 30 ± 0.2 | 40.6 ± 0.2 | 61.7 ± 0.2 | 80 ± 0.2 | 102.6 ± 0.3
